Our source for the IC50 values is US10160747B2, “Compounds and methods for kinase modulation, and indications therefor” (Plexxikon Inc., priority 2016, dated 2018).

One assay addresses T1, FLT3-D835Y (Homo sapiens, UniProt P36888, D835Y).
T1 construct: purchased Invitrogen PV3967
T1 sequence (P36888 27-993 D835Y): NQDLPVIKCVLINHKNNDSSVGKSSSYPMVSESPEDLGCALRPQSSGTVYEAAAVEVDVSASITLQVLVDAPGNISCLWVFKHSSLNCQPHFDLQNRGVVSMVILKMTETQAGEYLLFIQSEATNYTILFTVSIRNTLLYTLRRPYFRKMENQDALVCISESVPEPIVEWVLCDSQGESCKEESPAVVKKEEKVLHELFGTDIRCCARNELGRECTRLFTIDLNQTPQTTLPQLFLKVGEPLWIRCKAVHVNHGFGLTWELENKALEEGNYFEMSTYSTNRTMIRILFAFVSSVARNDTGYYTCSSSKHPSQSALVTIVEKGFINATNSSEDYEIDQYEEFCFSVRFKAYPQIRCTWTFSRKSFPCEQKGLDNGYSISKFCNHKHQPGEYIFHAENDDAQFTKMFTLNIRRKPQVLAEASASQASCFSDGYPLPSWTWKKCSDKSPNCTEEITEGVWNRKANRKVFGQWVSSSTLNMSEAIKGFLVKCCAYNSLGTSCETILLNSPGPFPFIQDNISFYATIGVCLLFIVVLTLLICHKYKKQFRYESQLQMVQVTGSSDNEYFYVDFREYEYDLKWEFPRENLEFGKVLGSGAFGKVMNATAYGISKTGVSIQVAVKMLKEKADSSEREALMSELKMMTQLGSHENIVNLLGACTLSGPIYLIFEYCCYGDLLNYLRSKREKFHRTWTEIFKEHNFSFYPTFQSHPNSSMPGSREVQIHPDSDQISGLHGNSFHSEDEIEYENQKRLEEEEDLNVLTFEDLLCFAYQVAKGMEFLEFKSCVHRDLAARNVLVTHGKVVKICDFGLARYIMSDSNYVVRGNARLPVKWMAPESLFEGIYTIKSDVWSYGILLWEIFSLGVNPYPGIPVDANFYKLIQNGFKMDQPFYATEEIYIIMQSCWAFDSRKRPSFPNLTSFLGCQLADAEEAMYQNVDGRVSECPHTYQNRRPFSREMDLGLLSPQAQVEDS
Description: FLT3-D835Y recombinant enzyme kinase assay (AlphaScreen). The assay is classed as biochemical. The conditions noted are these: 8 pt, GMean. The procedure:
(§1) In order to determine the effect of compounds on FLT3 catalytic activity, kinase assays using recombinant enzymes and AlphaScreen® technology have been established. The catalytic activity of c-kit activity was also measured to determine selectivity of the compounds. When the kinases are catalytically active, they phosphorylate a biotinylated peptide substrate on tyrosine residues. Using AlphaScreen® technology, the ability of the compounds to affect the catalytic activity of the kinases can be measured quantitatively. The peptide substrate is immobilized by the AlphaScreen® Streptavidin Donor beads and, upon phosphorylation by a tyrosine kinase, can bind to AlphaScreen® Anti-Phosphotyrosine (PY20) Acceptor beads. Upon excitation of these beads with laser light at 680 nm, singlet oxygen is produced. This singlet oxygen is rapidly quenched, unless the AlphaScreen® Anti-Phosphotyrosine (PY20) Acceptor beads are in close proximity, in which case a proximity signal can be measured at 580 nm. In the presence of catalytic activity, there is a very strong proximity signal. Selective kinase inhibitors affect a decrease in this proximity signal through a decrease in tyrosine phosphorylation of the peptide substrate.
(§2) The assay was performed as summarized below.
(§3) Poly (Glu4-Tyr) Peptide, biotin conjugate [Biotin-GG(EEEEY)10EE] (SEQ ID NO: 4)
(§4) Final concentration=30 nM
(§5) Adenosine Triphosphate (ATP)
(§6) Final concentration for IC50 determination=10 μM (FLT3-D835Y or FLT3-ITD) or 100 μM (c-KIT)
(§7) AlphaScreen® Phosphotyrosine (PY20) Assay Kit
(§8) Final concentration=10 μg/mL
(§9) Dilute compounds in DMSO to 20× final concentration.
(§10) Add 1 μL of compound to each well of 384 well reaction plate (Perkin Elmer #6005359).
(§11) Mix enzyme and Poly (Glu4-Tyr) Peptide substrate at 1.33× final concentration in assay buffer.
(§12) Mix ATP at 5× final concentration in assay buffer.
(§13) Add 15 μL enzyme/substrate mixture to the reaction plate.
(§14) Add 4 μL of ATP to the reaction plate.
(§15) Mix Streptavidin Donor beads at 6× final concentration in Stop/Detection buffer.
(§16) Add 5 μL Streptavidin Donor beads to the reaction plate. Centrifuge 1 minute, shake to mix, and incubate at room temperature for 20 minutes.
(§17) Mix Anti-Phosphotyrosine (PY20) Acceptor beads at 6× final concentration in Stop/Detection buffer.
(§18) Add 5 μL Anti-Phosphotyrosine (PY20) beads to the reaction plate.
(§19) Centrifuge 1 minute, shake to mix, and incubate at room temperature for 60 minutes.
(§20) Read plate on Wallac EnVision™ 2103 Multilabel Reader.
A general note: Bead proximity is the source of the signal in Alpha formats.

Another assay concerns the target T2, c-KIT (Homo sapiens, UniProt P10721).
T2 construct: purchased Millipore 14-559K
The assay is described as follows: c-KIT recombinant enzyme kinase assay (AlphaScreen). Type of assay: biochemical. The note with it: 100 ATP, 8 pt. The procedure:
as §1, §2, §3, §4, §5, §6, §7, §8, §9, §10, §11, §12, §13, §14, §15, §16, §17, §18, §19, §20

T2 sequence (P10721 26-976): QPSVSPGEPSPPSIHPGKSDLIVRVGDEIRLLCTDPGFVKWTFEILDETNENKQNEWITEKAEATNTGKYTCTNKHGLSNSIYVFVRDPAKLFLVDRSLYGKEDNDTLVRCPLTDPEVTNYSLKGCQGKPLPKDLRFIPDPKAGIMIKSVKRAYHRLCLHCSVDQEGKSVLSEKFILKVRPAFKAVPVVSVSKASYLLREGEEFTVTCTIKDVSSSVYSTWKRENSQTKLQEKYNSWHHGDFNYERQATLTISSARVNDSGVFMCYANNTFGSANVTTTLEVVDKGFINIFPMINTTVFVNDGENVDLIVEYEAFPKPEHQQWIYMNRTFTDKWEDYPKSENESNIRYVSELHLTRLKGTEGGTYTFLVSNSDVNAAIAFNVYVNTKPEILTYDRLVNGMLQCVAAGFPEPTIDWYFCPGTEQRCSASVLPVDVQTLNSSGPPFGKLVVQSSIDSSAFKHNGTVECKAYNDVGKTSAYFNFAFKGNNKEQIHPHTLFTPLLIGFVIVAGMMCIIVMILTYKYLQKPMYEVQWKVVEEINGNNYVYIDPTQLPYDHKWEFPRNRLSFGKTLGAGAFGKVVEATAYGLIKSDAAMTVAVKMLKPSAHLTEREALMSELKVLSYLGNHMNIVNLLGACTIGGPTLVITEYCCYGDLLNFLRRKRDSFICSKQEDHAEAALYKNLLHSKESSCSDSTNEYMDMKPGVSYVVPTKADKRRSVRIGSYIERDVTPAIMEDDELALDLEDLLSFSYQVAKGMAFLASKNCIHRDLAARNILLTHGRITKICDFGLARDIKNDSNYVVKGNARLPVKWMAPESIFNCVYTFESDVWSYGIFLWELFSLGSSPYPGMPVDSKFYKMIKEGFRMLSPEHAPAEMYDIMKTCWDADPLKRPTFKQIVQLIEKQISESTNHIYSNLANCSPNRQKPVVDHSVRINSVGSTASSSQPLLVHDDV

One may read the IC50 as the concentration that inhibits the measured activity by half. Consider `O=C(Cc1ccc(-c2cnc3[nH]c(-c4ccccc4)cc3c2)c(F)c1)Nc1cccc(C(F)(F)F)c1` [Compound P-0003, 2-[3-fluoro-4-(2-phenyl-1H-pyrrolo[2,3-b]pyridin-5-yl)phenyl]-N-[3-(trifluoromethyl)phenyl]acetamide], for which the IC50 at FLT3-D835Y lay in the range of 0.0001 to 10 µM.
Still for that read-out and setting: next, `O=C(Cc1ccc(-c2cnc3[nH]c(-c4ccccc4)cc3c2)cc1F)Nc1ccnc(C(F)(F)F)c1` [Compound P-0004, 2-[2-fluoro-4-(2-phenyl-1H-pyrrolo[2,3-b]pyridin-5-yl)phenyl]-N-[2-(trifluoromethyl)-4-pyridyl]acetamide]: 0.0001 to 10 µM.
For the compound `O=C(Cc1ccc(-c2cnc3[nH]c(-c4ccccc4)cc3c2)cn1)Nc1ccnc(C(F)(F)F)c1` [Compound P-0005, 2-[5-(2-phenyl-1H-pyrrolo[2,3-b]pyridin-5-yl)-2-pyridyl]-N-[2-(trifluoromethyl)-4-pyridyl]acetamide], the IC50 on FLT3-D835Y and on c-KIT was 0.0001 to 10 µM in each case.
On to `Cc1ncc(NC(=O)Cc2ccc(-c3cnc(Nc4cnn(C)c4)nc3)cc2F)cc1C(F)(F)F` [Compound P-0091, 2-[2-fluoro-4-[2-[(1-methylpyrazol-4-yl)amino]pyrimidin-5-yl]phenyl]-N-[6-methyl-5-(trifluoromethyl)-3-pyridyl]acetamide], for which the IC50 at FLT3-D835Y and at c-KIT was 0.0001 to 10 µM throughout.
As for `Cn1cc(Nc2ncc(-c3ccc(CC(=O)Nc4cnc(Cl)c(C(F)(F)F)c4)c(F)c3)cn2)cn1` [Compound P-0092, N-[6-chloro-5-(trifluoromethyl)-3-pyridyl]-2-[2-fluoro-4-[2-[(1-methylpyrazol-4-yl)amino]pyrimidin-5-yl]phenyl]acetamide], the IC50 on FLT3-D835Y and on c-KIT was 0.0001 to 10 µM in each case.
With `CC(C)c1cc(NC(=O)Cc2ccc(-c3cnc(Nc4cnn(C)c4)nc3)cc2F)ccn1` [Compound P-0094, 2-[2-fluoro-4-[2-[(1-methylpyrazol-4-yl)amino]pyrimidin-5-yl]phenyl]-N-(2-isopropyl-4-pyridyl)acetamide], the IC50 at FLT3-D835Y and at c-KIT was 0.0001 to 10 µM in each case.
Take `Cn1cc(Nc2ncc(-c3ccc(CC(=O)Nc4ccc(C(F)(F)F)nc4)cc3)cn2)cn1` [Compound P-0095, 2-[4-[2-[(1-methylpyrazol-4-yl)amino]pyrimidin-5-yl]phenyl]-N-[6-(trifluoromethyl)-3-pyridyl]acetamide]: the IC50 on FLT3-D835Y and on c-KIT was 0.0001 to 10 µM each time.
Consider `Cn1cnc(Nc2ncc(-c3ccc(CC(=O)Nc4cc(C(F)(F)F)ccn4)c(F)c3)cn2)c1` [Compound P-0096, 2-[2-fluoro-4-[2-[(1-methylimidazol-4-yl)amino]pyrimidin-5-yl]phenyl]-N-[4-(trifluoromethyl)-2-pyridyl]acetamide], for which the IC50 on FLT3-D835Y and on c-KIT was 0.0001 to 10 µM each time.
Regarding `Cn1cc(Nc2ncc(-c3ccc(CC(=O)Nc4ccnc(C5CC5)c4)cc3)cn2)cn1` [Compound P-0097, N-(2-cyclopropyl-4-pyridyl)-2-[4-[2-[(1-methylpyrazol-4-yl)amino]pyrimidin-5-yl]phenyl]acetamide], the IC50 at FLT3-D835Y and at c-KIT was 0.0001 to 10 µM in each case.
For `Cn1cc(Nc2ncc(-c3ccc(CC(=O)Nc4ccnc(C5CC5)c4)c(F)c3)cn2)cn1` [Compound P-0098, N-(2-cyclopropyl-4-pyridyl)-2-[2-fluoro-4-[2-[(1-methylpyrazol-4-yl)amino]pyrimidin-5-yl]phenyl]acetamide], the IC50 at FLT3-D835Y and on c-KIT was 0.0001 to 10 µM throughout.
As for `Cc1ncc(NC(=O)Cc2ccc(-c3cnc(Nc4cn(C)cn4)nc3)cc2F)cc1C(F)(F)F` [Compound P-0099, 2-[2-fluoro-4-[2-[(1-methylimidazol-4-yl)amino]pyrimidin-5-yl]phenyl]-N-[6-methyl-5-(trifluoromethyl)-3-pyridyl]acetamide], the IC50 on FLT3-D835Y and at c-KIT was 0.0001 to 10 µM in each case.
As to `Cn1cc(Nc2ncc(-c3ccc(CC(=O)NCc4cccnc4)cc3)cn2)cn1` [Compound P-0132, 2-[4-[2-[(1-methylpyrazol-4-yl)amino]pyrimidin-5-yl]phenyl]-N-(3-pyridylmethyl)acetamide], the IC50 on c-KIT lay within 0.0001 to 10 µM.
The same measure, in the same setting: next, `COc1cc(NC(=O)Cc2ccc(-c3cnc(Nc4cnn(C)c4)nc3)cc2)ccn1` [Compound P-0153, N-(2-methoxy-4-pyridyl)-2-[4-[2-[(1-methylpyrazol-4-yl)amino]pyrimidin-5-yl]phenyl]acetamide]: 0.0001 to 10 µM.
The same measure, in the same setting: next, `Cn1cc(Nc2ncc(-c3ccc(CC(=O)NCc4ncccc4C(F)(F)F)cc3)cn2)cn1` [Compound P-0159, 2-[4-[2-[(1-methylpyrazol-4-yl)amino]pyrimidin-5-yl]phenyl]-N-[[3-(trifluoromethyl)-2-pyridyl]methyl]acetamide]: 0.0001 to 10 µM; `COc1ccccc1CNC(=O)Cc1ccc(-c2cnc(Nc3cnn(C)c3)nc2)cc1` [Compound P-0160, N-[(2-methoxyphenyl)methyl]-2-[4-[2-[(1-methylpyrazol-4-yl)amino]pyrimidin-5-yl]phenyl]acetamide]: 0.0001 to 10 µM.
With `Cn1cc(Nc2ncc(-c3ccc(CC(=O)Nc4cc(Cl)c(C5CC5)cn4)cc3)cn2)cn1` [Compound P-0164, N-(4-chloro-5-cyclopropyl-2-pyridyl)-2-[4-[2-[(1-methylpyrazol-4-yl)amino]pyrimidin-5-yl]phenyl]acetamide], the IC50 on FLT3-D835Y is 0.0001 to 10 µM.
Same read-out and setting: next, `Cc1ncc(NC(=O)Cc2ccc(-c3cnc4[nH]nc(C)c4c3)c(F)c2)cc1C(F)(F)F` [Compound P-0172, 2-[3-fluoro-4-(3-methyl-1H-pyrazolo[3,4-b]pyridin-5-yl)phenyl]-N-[6-methyl-5-(trifluoromethyl)-3-pyridyl]acetamide]: 0.0001 to 10 µM; `O=C(Cc1ccc(-c2cnc3[nH]c(-c4ccc(N5CCOCC5)nc4)cc3c2)c(F)c1)Nc1cc(C(F)(F)F)ccn1` [Compound P-0192, 2-[3-fluoro-4-[2-(6-morpholino-3-pyridyl)-1H-pyrrolo[2,3-b]pyridin-5-yl]phenyl]-N-[4-(trifluoromethyl)-2-pyridyl]acetamide]: 0.0001 to 10 µM; `O=C(Cc1ccc(-c2cnc3[nH]c(-c4cnn(C(F)F)c4)cc3c2)c(F)c1)Nc1cncc(C(F)(F)F)c1` [Compound P-0197, 2-[4-[2-[1-(difluoromethyl)pyrazol-4-yl]-1H-pyrrolo[2,3-b]pyridin-5-yl]-3-fluoro-phenyl]-N-[5-(trifluoromethyl)-3-pyridyl]acetamide]: 0.0001 to 10 µM.
Turning to `N#Cc1cc(-c2cc3cc(-c4ccc(CC(=O)Nc5cncc(C(F)(F)F)c5)cc4F)cnc3[nH]2)ccn1` [Compound P-0199, 2-[4-[2-(2-cyano-4-pyridyl)-1H-pyrrolo[2,3-b]pyridin-5-yl]-3-fluoro-phenyl]-N-[5-(trifluoromethyl)-3-pyridyl]acetamide], the IC50 at c-KIT was 0.0001 to 10 µM.
